Measurements reported in patent US5047397A, “Linear analogs of atrial natriuretic peptides” (California Biotechnology Inc., priority 1988, dated 1991).
*1 amine or outer side, *2 acyl side, *3 side chain or, on linkers, in order; H or OH if unused. Where a SMILES comes first, the peptide text is derived from it. [ ]: non-standard residue; d: D form. The star is where a group is joined. ξ: configuration not given here. Butyryl(4-indol-3-yl) = O=C(CCCc1c[nH]c2ccccc12)*; Acetyl(2-naphthyloxy) = O=C(COc1ccc2ccccc2c1)*; Dibenzylacetyl = O=C(C(Cc1ccccc1)Cc1ccccc1)*; X5 = O=C(C(Cc1cccc2ccccc12)Cc1cccc2ccccc12)*; ξNaproxenoyl = COc1ccc2cc(C(C)C(=O)*)ccc2c1; Acetyl(2-naphthyl) = O=C(Cc1ccc2ccccc2c1)*; X7 = O=C(CN1CCC(C(=O)*)CC1)c1ccc2ccccc2c1; 2Naphthoyl = O=C(c1ccc2ccccc2c1)*; NMeI = CC[C@H](C)[C@H](NC)C(=O)O; X1 = O=C(Cc1ccc(N[*:1])cc1)[*:2]; Cha = N[C@@H](CC1CCCCC1)C(=O)O; Phg = N[C@H](C(=O)O)c1ccccc1; 4Abz = Nc1ccc(C(=O)O)cc1; Aib = CC(C)(N)C(=O)O; Inp = O=C(O)C1CCNCC1; Ava = NCCCCC(=O)O; GABA = NCCCC(=O)O; βAla = NCCC(=O)O; X3 = CCC(C)CN*

molecular target: T1, specific ANP receptor sites on BASM or BAE cells (Bos taurus, UniProt P10730); experiment: Competitive displacement receptor binding of (125I)-rANP(126-150) on cultured cells; parameters: species or system bovine; conditions: not given
T1 construct: specific receptor sites on BASM or BAE cells; endogenous in cells; host or cells: cultured BASM and BAE cells
T1 sequence (P10730 42-537): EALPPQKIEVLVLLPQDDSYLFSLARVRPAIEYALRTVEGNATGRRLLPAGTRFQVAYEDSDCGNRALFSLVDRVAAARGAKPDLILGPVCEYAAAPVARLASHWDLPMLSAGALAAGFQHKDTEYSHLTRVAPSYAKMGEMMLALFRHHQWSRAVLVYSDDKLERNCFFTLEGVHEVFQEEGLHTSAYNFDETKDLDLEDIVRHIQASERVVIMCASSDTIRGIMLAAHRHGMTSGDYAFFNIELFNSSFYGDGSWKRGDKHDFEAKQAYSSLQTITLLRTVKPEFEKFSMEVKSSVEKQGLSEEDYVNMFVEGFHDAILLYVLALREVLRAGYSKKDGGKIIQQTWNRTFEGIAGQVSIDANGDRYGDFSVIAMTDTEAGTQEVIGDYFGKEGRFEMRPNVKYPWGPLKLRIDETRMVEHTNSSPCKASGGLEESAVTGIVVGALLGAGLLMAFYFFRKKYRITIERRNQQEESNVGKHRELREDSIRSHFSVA
Source text: Analogous "competitive displacement" receptor binding assays are considered commonplace in the art for examining specific ligand-receptor interactions.
Assuming these ANP analogs act at one or more ANP receptor sites, then increased receptor affinity should reflect increased biological potency.

Structure (SMILES) | receptor binding / activity as judged by Ki, in words
CC[C@H](C)[C@H](NC(=O)[C@H](CCCNC(=N)N)NC(=O)[C@H](CC(=O)O)NC(=O)[C@@H](NC(=O)[C@H](CCCNC(=N)N)NC(=O)CNC(=O)CNC(=O)Cc1ccc2ccccc2c1)c1ccccc1)C(N)=O [AP575, (2-NA)--G--G--R--Phg--D--R--I--NH2] ({Acetyl(2-naphthyl)}-GGR[Phg]DRI-NH2) | very low, if any, activity

same assay, conditions: concentration of unlabeled peptide displacing 50% of maximal binding of 0.5 nM (125I)-rANP(126-150); BASM or BAE cells

Structure (SMILES) | Ki(app) [nM]
CCNC(=O)CNC(=O)[C@@H](NC(=O)[C@H](CCCNC(=N)N)NC(=O)[C@H](CC(=O)O)NC(=O)[C@@H](NC(=O)[C@H](CCCNC(=N)N)NC(=O)CNC(=O)CNC(=O)Cc1ccc2ccccc2c1)[C@@H](C)CC)[C@@H](C)CC [AP524, (2-NA)--G--G--R--I--D--R--I--G--NH-(ethyl)] ({Acetyl(2-naphthyl)}-GGRIDRIG-NHEt) | 2.76
CC[C@H](C)[C@H](NC(=O)[C@H](CCCNC(=N)N)NC(=O)[C@H](CC(=O)O)NC(=O)[C@@H](NC(=O)[C@H](CCCNC(=N)N)NC(=O)CNC(=O)CNC(=O)Cc1ccc2ccccc2c1)[C@@H](C)CC)C(=O)NCC(=O)NC(C)(C)C(N)=O [AP525, (2-NA)--G--G--R--I--D--R--I--G--(Aib)--NH2] ({Acetyl(2-naphthyl)}-GGRIDRIG[Aib]-NH2) | 22.75
CC[C@H](C)[C@H](NC(=O)[C@H](CCCNC(=N)N)NC(=O)[C@H](CC(=O)O)NC(=O)[C@@H](NC(=O)[C@H](CCCNC(=N)N)NC(=O)CNC(=O)CNC(=O)Cc1ccc2ccccc2c1)[C@@H](C)CC)C(=O)NCCCCC(N)=O [AP526, (2-NA)--G--G--R--I--D--R--I--NH--(CH2)4 --CONH2] ({Acetyl(2-naphthyl)}-GGRIDRI[Ava]-NH2) | 50.5
CC[C@H](C)[C@H](NC(=O)[C@H](CCCNC(=N)N)NC(=O)[C@H](CC(=O)O)NC(=O)[C@H](CC1CCCCC1)NC(=O)[C@H](CCCNC(=N)N)NC(=O)CNC(=O)CNC(=O)Cc1ccc2ccccc2c1)C(N)=O [AP527, (2-NA)--G--G--R--Cha--D--R--I--NH2] ({Acetyl(2-naphthyl)}-GGR[Cha]DRI-NH2) | 22.5
CC[C@H](C)[C@H](NC(=O)[C@H](CCCNC(=N)N)NC(=O)[C@H](CC(=O)O)NC(=O)[C@@H](NC(=O)[C@H](CCCNC(=N)N)NC(=O)CNC(=O)CNC(=O)C(C)c1ccc2cc(OC)ccc2c1)[C@@H](C)CC)C(=O)NCC(=O)N[C@@H](C)C(N)=O (stereo partly drawn) [AP528, 2(2'-(6'-MeONAP))--G--G--R--I--D--R--I--G--A--NH2] (ξNaproxenoyl-GGRIDRIGA-NH2) | 22.5
CCNC(=O)CNC(=O)[C@H]([C@@H](C)CC)N(C)C(=O)[C@H](CCCNC(=N)N)NC(=O)[C@H](CC(=O)O)NC(=O)[C@@H](NC(=O)[C@H](CCCNC(=N)N)NC(=O)CNC(=O)CNC(=O)Cc1ccc2ccccc2c1)[C@@H](C)CC [AP529] ({Acetyl(2-naphthyl)}-GGRIDR[NMeI]G-NHEt) | 87.3
CCNC(=O)CNC(=O)[C@@H](NC(=O)[C@H](CCCNC(=N)N)NC(=O)[C@H](CC(=O)O)NC(=O)[C@@H](NC(=O)[C@H](CCCNC(=N)N)NC(=O)CCCCNC(=O)Cc1ccc2ccccc2c1)[C@@H](C)CC)[C@@H](C)CC [AP530, (2-NA)--NH(CH2)4 CO--R--I--D--R--I--G--NH--(ethyl)] ({Acetyl(2-naphthyl)-Ava}-RIDRIG-NHEt) | 50.5
CC[C@H](C)[C@H](NC(=O)[C@H](CCCNC(=N)N)NC(=O)[C@H](CC(=O)O)NC(=O)[C@@H](NC(=O)[C@H](CCCNC(=N)N)NC(=O)CNC(=O)CCCc1c[nH]c2ccccc12)[C@@H](C)CC)C(=O)NCC(=O)N[C@@H](C)C(N)=O [AP531, (3-IB)--G--R--I--D--R--I--G--A--NH2)] ({Butyryl(4-indol-3-yl)}-GRIDRIGA-NH2) | 9.34
CC[C@H](C)[C@H](NC(=O)[C@H](CCCNC(=N)N)NC(=O)[C@H](CC(=O)O)NC(=O)[C@@H](NC(=O)[C@H](CCCNC(=N)N)NC(=O)CCNC(=O)CCCc1c[nH]c2ccccc12)[C@@H](C)CC)C(=O)NCC(=O)N[C@@H](C)C(N)=O [AP532, (3-IB)--beta--Ala--R--I--D--R--I--G--A--NH2)] ({Butyryl(4-indol-3-yl)-βAla}-RIDRIGA-NH2) | 11.95
CC[C@H](C)[C@H](NC(=O)[C@H](CCCNC(=N)N)NC(=O)[C@H](CC(=O)O)NC(=O)[C@@H](NC(=O)[C@H](CCCNC(=N)N)NC(=O)CNC(=O)CNC(=O)C(Cc1cccc2ccccc12)Cc1cccc2ccccc12)[C@@H](C)CC)C(=O)NCC(=O)N[C@@H](C)C(N)=O [AP533] (X5-GGRIDRIGA-NH2) | 52.0
CC[C@H](C)[C@H](NC(=O)[C@H](CCCNC(=N)N)NC(=O)[C@H](CC(=O)O)NC(=O)[C@@H](NC(=O)[C@H](CCCNC(=N)N)NC(=O)CNC(=O)CNC(=O)C(Cc1ccccc1)Cc1ccccc1)[C@@H](C)CC)C(=O)NCC(=O)N[C@@H](C)C(N)=O [AP534, (DBA)--G--G--R-- I--D--R--I--G--A--NH2)] (Dibenzylacetyl-GGRIDRIGA-NH2) | 8.81
CC[C@H](C)[C@H](NC(=O)[C@H](CCCNC(=N)N)NC(=O)CNC(=O)CNC(=O)Cc1ccc2ccccc2c1)C(=O)N[C@@H](CC(=O)O)C(=O)N[C@@H](CCCNC(=N)N)C(=O)N[C@@H](C(N)=O)C(C)C [AP535, (2-NA)--G--G--R--I--D--R--V^ --NH2)] ({Acetyl(2-naphthyl)}-GGRIDR[dV]-NH2) | 14.0
CC[C@H](C)[C@H](NC(=O)[C@H](CCCNC(=N)N)NC(=O)CNC(=O)CNC(=O)Cc1ccc2ccccc2c1)C(=O)N[C@@H](CC(=O)O)C(=O)N[C@@H](CCCNC(=N)N)C(=O)N[C@H](CC(C)C)C(N)=O [AP536, (2-NA)--G--G--R--I--D--R--L^ --NH2)] ({Acetyl(2-naphthyl)}-GGRIDR[dL]-NH2) | 106.4
CC[C@H](C)[C@H](NC(=O)[C@H](CCCNC(=N)N)NC(=O)CNC(=O)CNC(=O)Cc1ccc2ccccc2c1)C(=O)N[C@@H](CC(=O)O)C(=O)N[C@@H](CCCNC(=N)N)C(=O)N[C@H](Cc1ccccc1)C(N)=O [AP537, (2-NA)--G--G--R--I--D--R--F^ --NH2)] ({Acetyl(2-naphthyl)}-GGRIDR[dF]-NH2) | > 160
CC[C@H](C)[C@H](NC(=O)[C@H](CCCNC(=N)N)NC(=O)[C@H](CC(=O)O)NC(=O)[C@@H](NC(=O)[C@H](CCCNC(=N)N)NC(=O)C1CCN(C(=O)Cc2ccc3ccccc3c2)CC1)[C@@H](C)CC)C(N)=O [AP538] ({Acetyl(2-naphthyl)-Inp}-RIDRI-NH2) | 9.9
CC[C@H](C)[C@H](NC(=O)[C@H](CCCNC(=N)N)NC(=O)[C@H](CC(=O)O)NC(=O)[C@@H](NC(=O)[C@H](CCCNC(=N)N)NC(=O)C1CCN(C(=O)COc2ccc3ccccc3c2)CC1)[C@@H](C)CC)C(N)=O [AP539] ({Acetyl(2-naphthyloxy)-Inp}-RIDRI-NH2) | 9.1
CCC(C)CNC(=O)[C@H](CCCNC(=N)N)NC(=O)[C@H](CC(=O)O)NC(=O)[C@@H](NC(=O)[C@H](CCCNC(=N)N)NC(=O)C1CCN(C(=O)Cc2ccc3ccccc3c2)CC1)[C@@H](C)CC (stereo partly drawn) [AP557] ({Acetyl(2-naphthyl)-Inp}-RIDR-X3) | 41.7
CC[C@H](C)[C@H](NC(=O)[C@H](CCCNC(=N)N)NC(=O)[C@H](CC(=O)O)NC(=O)[C@@H](NC(=O)[C@H](CCCNC(=N)N)NC(=O)c1ccc(NC(=O)Cc2ccc3ccccc3c2)cc1)[C@@H](C)CC)C(N)=O [AP560] ({Acetyl(2-naphthyl)-4Abz}-RIDRI-NH2) | 68.8
CC[C@H](C)[C@H](NC(=O)[C@H](CCCNC(=N)N)NC(=O)[C@H](CC(=O)O)NC(=O)[C@@H](NC(=O)[C@H](CCCNC(=N)N)NC(=O)C1CCN(C(=O)c2ccc3ccccc3c2)CC1)[C@@H](C)CC)C(N)=O [AP562] ({2Naphthoyl-Inp}-RIDRI-NH2) | 22.4
CC[C@H](C)[C@H](NC(=O)[C@H](CCCNC(=N)N)NC(=O)[C@H](CC(=O)O)NC(=O)[C@@H](NC(=O)[C@H](CCCNC(=N)N)NC(=O)Cc1ccc(NC(=O)Cc2ccc3ccccc3c2)cc1)[C@@H](C)CC)C(N)=O [AP564] ({Acetyl(2-naphthyl)}-[X1]RIDRI-NH2) | 10.1
CC[C@H](C)[C@H](NC(=O)[C@H](CCCNC(=N)N)NC(=O)[C@H](CC(=O)O)NC(=O)[C@@H](NC(=O)[C@H](CCCNC(=N)N)NC(=O)C1CCN(CC(=O)c2ccc3ccccc3c2)CC1)[C@@H](C)CC)C(N)=O [AP574] (X7-RIDRI-NH2) | 26.5
CC[C@H](C)[C@H](NC(=O)[C@H](CCCNC(=N)N)NC(=O)[C@H](CC(=O)O)NC(=O)[C@@H](NC(=O)[C@H](CCCNC(=N)N)NC(=O)CNC(=O)CNC(=O)Cc1ccc2ccccc2c1)c1ccccc1)C(N)=O [AP575, (2-NA)--G--G--R--Phg--D--R--I--NH2] ({Acetyl(2-naphthyl)}-GGR[Phg]DRI-NH2) | 194.0
CC[C@H](C)[C@H](NC(=O)[C@H](CCCNC(=N)N)NC(=O)[C@H](CC(=O)O)NC(=O)[C@@H](NC(=O)[C@H](CCCNC(=N)N)NC(=O)CCCNC(=O)COc1ccc2ccccc2c1)[C@@H](C)CC)C(=O)NCC(=O)N[C@@H](C)C(N)=O [AP576, (2-NOA)--NH(CH2)3 CO--R--I--D--R--I--G--A--NH2] ({Acetyl(2-naphthyloxy)-GABA}-RIDRIGA-NH2) | 16.0
